Results: patent publication US20220226321A1, “INHIBITOR OF MNK FOR THE TREATMENT OF NEUROPATHIC PAIN” (Board of Regents, The University of Texas System, priority 2019, published 2022)
“Also recorded” adds a separate entry of the source.

What was measured:
DRG = assay: Western blot (immunoblot) of DRG tissue after paclitaxel or eFT508 in vivo; parameters: species or system mouse; conditions: Veh=100
DRG neurons = assay: whole-cell patch recording of acutely dissociated DRG neurons; assay type: cell-based, mouse
Description: Acute dissociation of mouse DRG neurons. Thirty mice were deeply anesthetized with isoflurane and the bilateral C4-5, T3-5, and L4-5 ganglia were surgically exposed and removed. The ganglia were placed in a flask containing trypsin (6.25 μg/mL, Hyclone) and type IA collagenase (0.25 mg/mL, Sigma-Aldrich) in DMEM and shaken for 50 min in a heated (37° C.) bath. After the cells were washed and mechanically dispersed with a fire polished Pasteur pipette, they were plated on poly-L-lysine-coated glass sheets and held in culture dishes with DMEM (10% FBS) until use within 6 hours after plating.
Whole-cell patch recording of spontaneous and evoked action potential in acutely dissociated mice DRG neurons. A previously described protocol was used (Li et al., 2017) for current-clamp recording. The internal solution contained 135 mM K-gluconate, 5 mM KCl, 5 mM Mg-ATP, 0.5 mM Na2GTP, 5 mM HEPES, 2 mM MgCl2, 5 mM EGTA, and 0.5 mM CaCl2 adjusted to pH 7.4 with KOH and the bath ACSF solution. DRG neurons were held at 0 pA, and the action potential current threshold was evoked using a series of 300-ms depolarizing current injections in 10-pA steps from −50 pA. The current that induced the first action potential that was defined as 1× rheobase. Only neurons with a resting membrane potential of at least −40 mV, stable baseline recordings, and evoked spikes that overshot 0 mV were used for further experiments and analysis. The DRG neurons were then held at 0 pA to record spontaneous action potential for 5 min. The different times rheobase injections for 500 ms was applied to induce action potential spike-burst responses. Series resistance (Rs) was compensated to above 70% for the recorded DRG neurons. All recordings were made at room temperature.

eIF4E phosphorylation = assay: Western blot of eIF4E phosphorylation in mPFC, DRG and sciatic nerve; assay type: in vivo, mouse
Description: Western blotting. […] The mPFC and DRGs were rapidly microdissected under a dissecting microscope and then flash frozen on dry ice. The mPFC was similarly collected from a separate group of WT male and female sham and SNI mice at 21 days post injury (the same time point as all rule-shifting experiments). Frozen tissues were homogenized with a pestle in lysis buffer (50 mM Tris, pH 7.4, 150 mM NaCl, 1 mM EDTA, pH 8.0, and 1% Triton X-100) containing protease and phosphatase inhibitors (Sigma-Aldrich), and then sonicated briefly. Samples were centrifuged at 14,000 rpm for 15 min at 4° C. 10 μg of protein was loaded into each well and separated by a 10%-12% SDS-PAGE gel. Proteins were transferred to a 0.45 μm PVDF membrane (Millipore) at 30 V overnight at 4° C. The next day, membranes were blocked with 5% non-fat dry milk (NFDM) in 1× Tris buffer solution containing Tween 20 (TTBS) for 1 h. Membranes were washed in 1×TTBS 3 times for 5 min each, then incubated with primary antibody overnight at 4° C. The primary antibodies used were: phospho-eIF4E (abcam ab76256; 1:1000), GAPDH (Cell Signaling Technology 2118S; 1:10000), total eIF4E (Cell Signaling Technology 9742S; 1:1000). […] Signals were detected using Immobilon Western Chemiluminescent HRP substrate (Millipore). […]

[1] = DRGs in vivo after eFT508 treatment
[2] = DRG, day 10 after induction of CIPN

SMILES	RagA, immunoblot (DRG; [1])	p4EBP1, immunoblot (DRG; [1])	p-eIF4E, immunoblot (DRG; [1])	spontaneous activity in DRG neurons from paclitaxel treated mice (DRG neurons)	toxicity to DRG neurons in vitro (DRG neurons)	treatment time needed to reduce spontaneous activity in most neurons (DRG neurons; DRG neurons from paclitaxel treated mice)	crossing of the blood-brain-barrier (eIF4E phosphorylation; evidenced by western blot of eIF4E phosphorylation after drug-treatment)	eIF4E phosphorylation in mPFC, DRG and sciatic nerve (eIF4E phosphorylation; naïve mice, 1 hour after 10 mg/kg i.p. or p.o.)	Esyt1 protein, immunoblot (DRG; DRG after CIPN induction)	mTOR, immunoblot (DRG; DRG after paclitaxel treatment)	p-4EBP1, immunoblot (DRG; DRG after paclitaxel treatment)	p-eIF4E, immunoblot (DRG; DRG after paclitaxel treatment)	p-mTOR, immunoblot (DRG; DRG after paclitaxel treatment)	RagA protein level, immunoblot (DRG; DRG of eIF4E^S209A mice, paclitaxel vs vehicle)	S6, immunoblot (DRG; [2])	p-Akt, immunoblot (DRG; [2])	p-ERK1/2, immunoblot (DRG; [2])	p-S6, immunoblot (DRG; [2])	RagA protein level, immunoblot (DRG; DRGs after CIPN)	spontaneous activity and nociceptor excitability (DRG neurons; cervical, thoracic and lumbar DRGs, day 10, paclitaxel 4 mg/kg every other day i.p.)
Cc1cc(Nc2cc(N)ncn2)c(=O)n2c1C(=O)NC21CCCCC1 [eFT508, Tomivosertib]	67±6.02	53.12±7.03	10±2.43	strongly suppressed; also recorded: decreases spontaneous activity	not toxic	Approximately 20 min	crosses the blood-brain-barrier	rapid and profound decrease; also recorded: significantly decreased												
CC(=O)O[C@H]1C(=O)[C@@]2(C)[C@H]([C@H](OC(=O)c3ccccc3)[C@]3(O)C[C@H](OC(=O)[C@H](O)[C@@H](NC(=O)c4ccccc4)c4ccccc4)C(C)=C1C3(C)C)[C@]1(OC(C)=O)CO[C@@H]1C[C@@H]2O [paclitaxel]									230±18.30	195±25.27	152±11.27	158±10.57	131±20.27	75±8.46	133±24.54	96.86±6.63	107±14.94	134±24.47	181±15.35	caused spontaneous activity and increased nociceptor excitability
